From ChEMBL document CHEMBL1147909, “Methylenedisalicylic acid derivatives: new PTP1B inhibitors that confer resistance to diet-induced obesity” (Bioorg Med Chem Lett, 2007)
pIC50, pKi: −log10 of the molar value. Values belong to the compound of their own block, whether it stands above or below them.

Assays:
[1] = molecular target: T1, Tyrosine-protein phosphatase non-receptor type 1 (Homo sapiens, UniProt P18031); experiment: Inhibition of PTP1B after 10 mins
T1 sequence (P18031 whole entry): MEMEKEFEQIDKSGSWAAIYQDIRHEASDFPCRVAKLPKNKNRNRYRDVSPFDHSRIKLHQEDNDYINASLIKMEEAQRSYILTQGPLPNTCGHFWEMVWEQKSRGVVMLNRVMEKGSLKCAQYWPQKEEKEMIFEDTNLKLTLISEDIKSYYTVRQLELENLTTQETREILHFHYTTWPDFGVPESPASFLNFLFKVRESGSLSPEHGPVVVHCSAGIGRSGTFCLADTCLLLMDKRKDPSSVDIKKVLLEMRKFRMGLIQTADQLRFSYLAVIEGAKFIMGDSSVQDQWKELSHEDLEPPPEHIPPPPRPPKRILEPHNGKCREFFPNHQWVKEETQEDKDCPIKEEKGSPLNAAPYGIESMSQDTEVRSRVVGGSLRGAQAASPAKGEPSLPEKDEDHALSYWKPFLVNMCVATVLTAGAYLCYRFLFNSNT

Mus musculus [2] = experiment: Effect on high fat diet induced obesity in C57BL/6J Jms Slc mouse assessed as body weight at 5 g/kg; type: functional
[3] = Inhibition of LAR Tyrosine phosphatase D1; parameters: species or system Homo sapiens
Homo sapiens = species: Homo sapiens; experiment: Selectivity for PTP1B over TC-PTP
[4] = molecular target: T2, Tyrosine-protein phosphatase non-receptor type 2 (Homo sapiens, UniProt P17706); experiment: Inhibition of TC-PTP
T2 sequence (P17706 whole entry): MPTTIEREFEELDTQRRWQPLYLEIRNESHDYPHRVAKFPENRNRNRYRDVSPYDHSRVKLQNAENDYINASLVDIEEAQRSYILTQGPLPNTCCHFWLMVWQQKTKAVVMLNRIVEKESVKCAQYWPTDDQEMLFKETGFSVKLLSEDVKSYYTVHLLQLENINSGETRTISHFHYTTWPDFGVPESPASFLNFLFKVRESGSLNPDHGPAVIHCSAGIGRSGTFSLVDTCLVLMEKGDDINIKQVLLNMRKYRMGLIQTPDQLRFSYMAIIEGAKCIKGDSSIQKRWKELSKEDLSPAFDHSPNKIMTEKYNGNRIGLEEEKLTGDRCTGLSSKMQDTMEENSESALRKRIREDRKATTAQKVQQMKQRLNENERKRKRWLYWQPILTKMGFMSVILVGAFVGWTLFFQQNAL

Mus musculus [5] = experiment: Effect on high fat diet induced obesity in C57BL/6J Jms Slc mouse assessed as retroperitoneal adipose tissue weight at 5 g/kg; type: functional
[6] = molecular target: T3, Tyrosine-protein phosphatase 1 (Saccharomyces cerevisiae S288c, UniProt P25044); experiment: Inhibition of yeast PTP1
T3 sequence (P25044 whole entry): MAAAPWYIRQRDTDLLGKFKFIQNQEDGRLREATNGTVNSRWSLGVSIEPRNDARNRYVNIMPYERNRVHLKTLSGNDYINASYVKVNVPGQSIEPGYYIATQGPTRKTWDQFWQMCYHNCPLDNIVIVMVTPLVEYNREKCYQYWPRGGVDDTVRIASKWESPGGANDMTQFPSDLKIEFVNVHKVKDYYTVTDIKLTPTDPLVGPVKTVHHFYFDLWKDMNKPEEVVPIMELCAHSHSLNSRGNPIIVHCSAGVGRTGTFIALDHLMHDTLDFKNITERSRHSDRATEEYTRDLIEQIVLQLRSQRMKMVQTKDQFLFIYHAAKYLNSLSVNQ

Mus musculus [7] = experiment: Effect on high fat diet induced obesity in C57BL/6J Jms Slc mouse assessed as liver weight at 5 g/kg; type: functional
Mus musculus [8] = experiment: Effect on high fat diet induced obesity in C57BL/6J Jms Slc mouse assessed as epididymal adipose tissue weight at 5 g/kg; type: functional
[9] = molecular target: Tyrosine-protein phosphatase non-receptor type 6 (Homo sapiens, UniProt P29350); experiment: Inhibition of SHP-1 catalytic domain
Chain of Tyrosine-protein phosphatase non-receptor type 6 (P29350 whole entry, the tested form may be a part): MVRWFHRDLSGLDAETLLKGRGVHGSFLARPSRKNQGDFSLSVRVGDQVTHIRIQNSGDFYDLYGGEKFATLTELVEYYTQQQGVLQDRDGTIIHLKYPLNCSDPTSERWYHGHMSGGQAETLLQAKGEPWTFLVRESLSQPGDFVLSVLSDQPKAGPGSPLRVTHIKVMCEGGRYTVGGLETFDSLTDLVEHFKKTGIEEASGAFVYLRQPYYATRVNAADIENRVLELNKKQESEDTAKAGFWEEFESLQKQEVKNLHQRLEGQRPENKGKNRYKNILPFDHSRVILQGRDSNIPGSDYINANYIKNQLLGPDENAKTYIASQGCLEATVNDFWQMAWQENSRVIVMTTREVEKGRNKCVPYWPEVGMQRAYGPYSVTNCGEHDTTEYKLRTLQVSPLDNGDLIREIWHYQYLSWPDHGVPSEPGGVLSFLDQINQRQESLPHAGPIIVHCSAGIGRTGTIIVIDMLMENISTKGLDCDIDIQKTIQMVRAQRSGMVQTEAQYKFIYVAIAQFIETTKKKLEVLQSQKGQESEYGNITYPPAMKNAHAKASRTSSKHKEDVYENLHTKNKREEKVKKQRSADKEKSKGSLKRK

SMILES: O=C(O)c1cc(Cc2cc(C(=O)O)c(O)c(-c3ccccc3)c2)cc(-c2ccccc2)c1O
- Activity (Mus musculus [2]): 29.2 g
- pIC50 [3]: < 2.70
- Selectivity ratio (Homo sapiens): > 10
- pIC50 [4]: 3.54
- pKi [4]: 4.19
- Activity (Mus musculus [5]): 0.26 g
- pIC50 [6]: 3.63
- Activity (Mus musculus [7]): 1.03 g
- Activity (Mus musculus [8]): 0.86 g
- pIC50 [1]: 4.70
- pKi [1]: 5.03
- pIC50 [9]: 4.29
- pKi [9]: 4.77

SMILES: COc1cc(Cc2cc(OC)c(O)c(C(=O)O)c2)cc(C(=O)O)c1O
- pIC50 [1]: < 3.00

SMILES: Cc1cc(Cc2cc(C)c(O)c(C(=O)O)c2)cc(C(=O)O)c1O
- pIC50 [1]: < 3.00

Continued, values first:

- pIC50 [1]: 4.41
SMILES: O=C(O)c1cc(Cc2cc(C(=O)O)c(O)c(-c3ccco3)c2)cc(-c2ccco2)c1O

- pIC50 [1]: 3.62
SMILES: O=C(O)c1cc(Cc2cc(Cl)c(O)c(C(=O)O)c2)cc(Cl)c1O

- pIC50 [1]: 4.11
SMILES: O=C(O)c1cc(Cc2cc(Br)c(O)c(C(=O)O)c2)cc(Br)c1O

- pIC50 [3]: < 2.70
- Selectivity ratio (Homo sapiens): > 10
- pIC50 [4]: 3.84
- pKi [4]: 4.60
- pIC50 [6]: 3.99
- pIC50 [1]: 4.82
- pKi [1]: 5.20
- pIC50 [9]: 4.49
- pKi [9]: 4.85
SMILES: O=C(O)c1cc(Cc2cc(Cc3ccccc3)c(O)c(C(=O)O)c2)cc(Cc2ccccc2)c1O

- pIC50 [1]: 3.30
- pKi [1]: 4.94
SMILES: O=C(O)C(=O)Nc1sc2c(c1C(=O)O)CCNC2
